Measured values reported in patent publication US8748497B2, “Optimized fluorocarbon emulsions for blood substitutes and other therapeutic uses” (Alliance Pharmaceutical Corp., priority 2006, dated 2014).
Where two headings read alike, the source gives them in different places.

Legend:
[1] = pharmacokinetics in blood after single intravenous administration of the emulsion of Ex. VI; format: in vivo, Sprague Dawley rats; details: for half-life: Sprague-Dawley, rat, iv; for half-life / AUC(o-last) / AUC(o-∞) / Cl: blood; for Vd: terminal phase
Text: (§1) This study was designed to assess the pharmokinetics and tissue distribution of PFOB and PFDB following a single intravenous administration of the emulsion of Ex. VI at various time intervals at dose levels of 1.8 and 3.6 g PFC/k in male and female Sprague Daley rats, aged 7-9 weeks, weight between 190-267 grams. For pharmacokinetics, 160 rats were divided into 20 groups (N=4 rats/sex/dose/time interval) and for tissue distribution, 156 rats were divided into 26 groups (n=3 rats/sex/dose/time interval). The time intervals for pharmacokinetics blood sampling were 0.083, 0.5, 1, 3, 6, 12, 36, 48, 72 and 96 hours. The time intervals for tissue sampling was predose, 24 hours, 1, 2, 4, 8, 13, 17, 21, 26, 39, 52 and 72 weeks.
Six pharmacokinetic parameters were determined following a single intravenous dose of 1.8 gPFC/kg or 3.6 g PFC/kg in both the male and female rats as shown in the tables below.

[2] = tissue distribution after single intravenous administration of the emulsion of Ex. VI, GC headspace; format: in vivo, Sprague Dawley rats; details: 24 hours; for concentration at 24 h: Sprague-Dawley, rat, intravenous
Text: as §1
26 groups (N=3 rats/sex/group). Prior to euthanasia, body weights were recorded. At designated times (see below), rats were anesthetized with METOFANE® and esanguinated via the abdominal artery. Blood was collected into syringes containing EDTA and transferred into sealed plastic containers for storage at approximately −20° C. until analyzed. Resultant data were included in the determination of pharmacokinetic parameters. The following tissues were collected from each rat and placed in sealed containers and stored frozen at −20° C. Prior to freezing, blood and tissue samples were processed for analysis. PFOB and PFDB were quantified in blood and tissues using a GC headspace method validated by Oread. The method was validated in the liver and then cross validated to all other tissues, blood, and serum. The tissues collected and analyzed include heart, lungs, abdominal fat, spleen, liver, mesenteric lymph nodes, kidneys, adrenals, testes, ovaries, uterus, whole brain, eyes, skeletal muscle, femoral bone marrow, and gastrointestinal tract.
The concentration of PFOB and PFDB was determined in the tissues in both sexes at 12 time points. For the males, this was a total of 360 individual results including blood. There were 24 additional results for the female.

[3] = Phase 1 pharmacokinetics in healthy human volunteers; format: in vivo; details: human, blood; for AUC(0-t) / half-life: intravenous; for AUC(0-t): read-out: AUC (0-336); for half-life: read-out: t1/2. 12 h (initial elimination half-life within the first 12 h post dose) (converted); for Cmax: iv, healthy volunteers
Protocol: Two randomised, controlled, double-blind, parallel group, Phase 1 studies were conducted in healthy human patients with the fluorocarbon emulsion made according to Example VI. Blood and expired air samples were analysed for PFOB and PFDB after a single intravenous dose of 1.2 or 1.8 g PFC/kg of the fluorocarbon emulsion of Example VI in healthy human volunteers to determine pharmacokinetics. Blood samples were collected up to 336 hours post-dosing.

[4] = pharmacokinetics in subjects undergoing noncardiac surgical procedures; format: in vivo, human; details: noncardiac surgery; for AUC(0-inf) / clearance / Cmax / half-life: human, whole blood; for clearance: read-out: CL (whole blood clearance) (converted); for Cmax: read-out: Cmax (maximum whole blood concentration); for half-life: read-out: T1/2 (elimination half-life) (converted)
Protocol: The pharmacokinetics of PFOB and PFDB were determined after the administration of the fluorocarbon emulsion of Example VI to subjects undergoing total hip replacement or spinal surgery or a variety of urologic and gynaecologic procedures including radical retropubic prostatectomy, radical hysterectomy, cystectomy and combined procedures. Human subjects in one study received either 0.9 g PFC/kg or 1.8 g PFC/kg of the fluorocarbon formulation of Example VI and those in a second study received 1.8 g PFC/kg of the fluorocarbon formulation of Example VI.

[5] = pharmacokinetics in subjects undergoing CABG surgery with hypothermic CPB; format: in vivo, human
Protocol: The pharmacokinetics of PFOB and PFDB were determined after the administration of the fluorocarbon formulation taught in Example VI to human subjects undergoing coronary artery bypass grafting or CABG surgery with hypothermic cardiopulmonary bypass. In group 1 and in group 2, human subjects received the fluorocarbon emulsion (2.7 g PFC/kg) as taught in Example VI directly into the bypass oxygenator after being put on bypass but before cooling was begun. In group 4, subjects received 2.7 g PFC/kg of the fluorocarbon emulsion of Example VI directly into the bypass oxygenator either prior to aortic cannulation or after being put on bypass, but before cooling was begun.

[6] = four compartment model; cited from earlier work
[7] = female rats, 1.8 g PFC/kg single iv
[8] = female rats, 3.6 g PFC/kg single iv
[9] = male rats, 1.8 g PFC/kg single iv
[10] = male rats, 3.6 g PFC/kg single iv
[11] = 1.2 g PFC/kg, Table VII, 1.2 g PFC/kg
[12] = 1.2 g PFC/kg, Table VIII, 1.2 g PFC/kg
[13] = 1.8 g PFC/kg, Table VII, 1.8 g PFC/kg
[14] = 1.8 g PFC/kg, Table VIII, 1.8 g PFC/kg

For `FC(F)(F)C(F)(F)C(F)(F)C(F)(F)C(F)(F)C(F)(F)C(F)(F)C(F)(F)Br` [PFOB, perfluorooctyl bromide], the half-life ([1]; both sexes, 1.8 g/kg, male and female rats, 1.8 g PFC/kg, read-out: average terminal t1/2 (converted)) was roughly 3.04 days, the half-life ([1]; both sexes, 3.6 g/kg, male and female rats, 3.6 g PFC/kg, read-out: average terminal t1/2 (converted)) was 7.54 days and the “AUC(o-last)” value [1, 7] was 126.86 mg·h/g. For the same compound, the “AUC(o-∞)” value [1, 7] was 126.89 mg·h/g, the Cl [1, 7] was 5.41 g/h/kg and the Vd [1, 7] was 1605.67 g/kg. For the same compound, the “AUC(o-last)” value [1, 8] was 541.55 mg·h/g, the “AUC(o-∞)” value [1, 8] was 541.58 mg·h/g and the Cl [1, 8] was 6.70 g/h/kg. For the same compound, the Vd [1, 8] was 1182.97 g/kg, the half-life ([1]; female, 1.8 g/kg, female rats, 1.8 g PFC/kg single iv, last 3 or 4 data points, read-out: T1/2 (converted)) was 3.27 days and the half-life ([1]; female, 3.6 g/kg, female rats, 3.6 g PFC/kg single iv, last 3 or 4 data points, read-out: T1/2 (converted)) was 5.14 days. The “AUC(o-last)” value [1, 9] was 122.65 mg·h/g, the “AUC(o-∞)” value [1, 9] was 122.69 mg·h/g and the Cl [1, 9] was 6.01 g/h/kg. The Vd [1, 9] was 1443.18 g/kg, the “AUC(o-last)” value [1, 10] was 566.13 mg·h/g and the “AUC(o-∞)” value [1, 10] was 566.15 mg·h/g. The Cl [1, 10] was 8.93 g/h/kg, the Vd [1, 10] was 2191.83 g/kg and the half-life ([1]; male, 1.8 g/kg, male rats, 1.8 g PFC/kg single iv, last 3 or 4 data points, read-out: T1/2 (converted)) was 2.84 days. For the same compound, the half-life ([1]; male, 3.6 g/kg, male rats, 3.6 g PFC/kg single iv, last 3 or 4 data points, read-out: T1/2 (converted)) was 9.9 days, the “concentration in the liver and bone marrow” value ([2]; all four groups) was “greater than 10 mg/g” and the “percent of dose in liver” value ([2]; female rats, 1.8 g PFC/kg) was “approximately 63%”. The “percent of dose in spleen” value ([2]; female rats, 1.8 g PFC/kg) was “approximately 4%”, the “percent of dose in liver” value ([2]; female rats, 3.6 g PFC/kg) was “approximately 53%” and the “percent of dose in spleen” value ([2]; female rats, 3.6 g PFC/kg) was less than 1%. For the same compound, the concentration at 24 h ([2]; female, females 1.8 g PFC/kg, all tissues except the blood, eyes, and skeletal muscle, read-out: concentration in tissues) was greater than 100000 ng/g, the concentration at 24 h ([2]; female, females 3.6 g/kg of PFC, all tissues, read-out: concentration in tissues) was greater than 100000 ng/g and the “percent of dose in liver” value ([2]; male rats, 1.8 g PFC/kg) was “approximately 59%”. For the same compound, the “percent of dose in spleen” value ([2]; male rats, 1.8 g PFC/kg) was less than 1%, the “percent of dose in liver” value ([2]; male rats, 3.6 g PFC/kg) was “approximately 69%” and the concentration at 24 h ([2]; male, 3.6 g PFC/kg, males 3.6 PFC/kg, all tissues, read-out: concentration in tissues) was greater than 100000 ng/g. The concentration at 24 h ([2]; male, males 1.8 g/kg of PFC, all tissues except the eyes and skeletal muscles, read-out: absolute concentration in tissues) was greater than 100000 ng/g, the AUC(0-t) [3, 11] was 10.2 µg·h/mL and the half-life [3, 11] was 393 ± 124 min. It also gave an AUC(0-t) [3, 12] of 79200 µg·h/mL, a half-life [3, 12] of 325 min and an AUC(0-t) [3, 13] of 285000 µg·h/mL. The half-life [3, 13] was 630 ± 126 min, the AUC(0-t) [3, 14] was 239000 µg·h/mL and the half-life [3, 14] was 460 min. For the same compound, the Cmax ([3]; 1.2 g PFC/kg, Table VII, 1.2 g PFC/kg single iv) was 13600 µg/mL, the Cmax ([3]; 1.2 g PFC/kg, Table VIII, 1.2 g PFC/kg single iv) was 12600 µg/mL and the Cmax ([3]; 1.8 g PFC/kg, Table VII, 1.8 g PFC/kg single iv) was 22700 µg/mL. For the same compound, the Cmax ([3]; 1.8 g PFC/kg, Table VIII, 1.8 g PFC/kg single iv) was 21800 µg/mL, the AUC(0-inf) ([4]; 0.9 g PFC/kg) was 13300 µg·h/mL and the clearance ([4]; 0.9 g PFC/kg) was 1.61 mL/min/kg. The Cmax ([4]; 0.9 g PFC/kg) was 7680 µg/mL, the half-life ([4]; 0.9 g PFC/kg) was 142 ± 184 min and the AUC(0-inf) ([4]; 1.8 g PFC/kg) was 57400 µg·h/mL. It also gave a clearance ([4]; 1.8 g PFC/kg) of 0.703 mL/min/kg, a Cmax ([4]; 1.8 g PFC/kg) of 17500 µg/mL and a half-life ([4]; 1.8 g PFC/kg) of 226 ± 161 min. The “whole blood concentration relative to PFDB” value [4] was “approximately 30 fold”, the “whole blood concentration relative to PFDB” value [5] was roughly 30 fold and the AUC(0-inf) ([5]; human, whole blood, other: directly into the bypass oxygenator, 2.7 g PFC/kg) was 300000 µg·h/mL. It also gave a clearance ([5]; human, whole blood, other: directly into the bypass oxygenator, 2.7 g PFC/kg, read-out: CL (whole blood clearance) (converted)) of 0.165 mL/min/kg, a Cmax ([5]; human, whole blood, other: directly into the bypass oxygenator, 2.7 g PFC/kg, read-out: Cmax (maximum whole blood concentration)) of 30300 µg/mL and a half-life ([5]; human, whole blood, other: directly into the bypass oxygenator, 2.7 g PFC/kg, read-out: T1/2 (elimination half-life) (converted)) of 459 ± 163 min. For the same compound, the “rate constant k10” value [6] was “≈ 0.000 hr^−1”, the “rate constant k12” value [6] was “≈ 0.04 hr^−1” and the “rate constant k24” value [6] was “≈ 0.006 hr^−1”. The “rate constant k34” value [6] was “≈ 0.002 hr^−1”, the “rate constant k40” value [6] was “≈ 0.07 hr^−1” and the “rate constant k42” value [6] was “≈ 0.002 hr^−1”.
